Laboratory results as given in ChEMBL document CHEMBL1127664, “Second-generation benzodiazepine CCK-B antagonists. Development of subnanomolar analogs with selectivity and water solubility” (J Med Chem, 1994).
In brackets after ≈: the same amount, converted by molar mass.

What was measured:
[1] = Equilibrium solubility determined after stirring the compound in buffered solution for more than 5 hours at pH 7.4; assay type: ADME
[2] = target: T1, Cholecystokinin receptor type A (Rattus norvegicus, UniProt P30551); assay: The compound was tested for binding activity against Cholecystokinin type A receptor from rat pancreas using [125]BH CCK-8s as radioligand.
T1 sequence (P30551 whole entry): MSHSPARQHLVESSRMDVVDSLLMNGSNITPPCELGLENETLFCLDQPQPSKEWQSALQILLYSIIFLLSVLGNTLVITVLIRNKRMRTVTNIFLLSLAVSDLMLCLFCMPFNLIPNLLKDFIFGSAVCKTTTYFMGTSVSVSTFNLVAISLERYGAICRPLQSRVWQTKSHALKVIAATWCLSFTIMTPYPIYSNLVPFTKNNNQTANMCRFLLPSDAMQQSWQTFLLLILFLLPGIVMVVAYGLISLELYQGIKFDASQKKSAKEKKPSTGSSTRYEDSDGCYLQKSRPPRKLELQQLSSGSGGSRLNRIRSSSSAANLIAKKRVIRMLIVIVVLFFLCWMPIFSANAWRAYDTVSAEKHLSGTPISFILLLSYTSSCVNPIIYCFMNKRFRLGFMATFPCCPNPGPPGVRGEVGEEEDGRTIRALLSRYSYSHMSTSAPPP

[3] = Equilibrium solubility determined after stirring the compound in buffered solution for more than 5 hours at pH 8.00; assay type: ADME
[4] = target: T1, Cholecystokinin receptor type A; assay: The compound was tested for binding activity against Cholecystokinin type A receptor from rat pancreatic tissue using [125]BH CCK-A as radioligand
[5] = Equilibrium solubility determined after stirring the compound in buffered solution for more than 5 hours at pH 7; assay type: ADME
[6] = Equilibrium solubility determined after stirring the compound in buffered solution for more than 5 hours at pH 8.0; assay type: ADME

Row | SMILES | solubility thermodynamic at 5 h [1] [µg/mL] | IC50 [2] [nM] | also measured
1 | Cc1ccc(NC(=O)N[C@H]2N=C(c3ccccc3)c3ccccc3N(C)C2=O)cc1 | > 2 | 736 | 
2 | CN1C(=O)[C@H](NC(=O)Nc2ccc(-c3nc(=O)o[nH]3)cc2)N=C(c2ccccc2)c2ccccc21 |  | 15.4 | 
3 | CC(C)CN1C(=O)[C@@H](NC(=O)Nc2ccc(-c3nn[nH]n3)cc2)N=C(c2ccccc2)c2ccccc21 |  |  | solubility thermodynamic at 5 h [3]: > 11000 µg/mL; IC50 [4]: 1430 nM; solubility thermodynamic at 5 h [5]: 1400 µg/mL (≈ 2.83 mM)
4 | CN1C(=O)[C@@H](NC(=O)Nc2ccc(-c3nnn[nH]3)cc2)N=C(c2ccccc2)c2ccccc21 | 3740 (≈ 8.27 mM) |  | IC50 [4]: 577 nM
5 | CN1C(=O)[C@@H](NC(=O)Nc2ccc(-c3noc(O)n3)cc2)N=C(c2ccccc2)c2ccccc21 | 410 (≈ 0.875 mM) | 983 | solubility thermodynamic at 5 h [6]: 1660 µg/mL (≈ 3.54 mM)
6 | CC(C)CN1C(=O)[C@H](NC(=O)Nc2ccc(-c3nnn[nH]3)cc2)N=C(c2ccccc2)c2ccccc21 |  | 379 | 
7 | CN1C(=O)[C@H](NC(=O)Nc2ccc(-c3nn[nH]n3)cc2)N=C(c2ccccc2)c2ccccc21 |  | 6.16 | 
8 | CN1C(=O)C(NC(=O)Nc2ccc(C(=O)O)cc2)N=C(c2ccccc2)c2ccccc21 (single isomer, unassigned) | 4700 (≈ 11 mM) | 1550 | 
